PubChem BioAssay AID2060503 (Molecular Pharmacology Branch, DTP, NCI, 2025)

Test system: 817829-284-R-J1-PDC complex spheroids, viability
Experiment: Anticancer human tumor 817829-284-R-J1-PDC patient-derived colon adenocarcinoma cell line growth inhibition [GQUAD]
Conditions: for IC50: curve of first compound; for viability, T/C: stronger effect = lower value
Text: DNA G-quadruplex Stabilizer Agents in Combinations in Complex Spheroids
A high-throughput screen of multi-cell type tumor spheroids was designed to identify active combinations of DNA G-quadruplex stabilizer agents and targeted small molecules. Complex spheroids include a stromal component modeled by human endothelial cells (HUVEC) and fibroblasts modeled by human mesenchymal stem cells (MSCs). The concentration ranges selected for each drug and investigational agent were based upon clinically achievable concentrations if the clinical Cmax of the agent was known.
Compounds. The drugs and investigational agents: pidnarulex (CX-5461; NSC782164), APTO-253 (NSC789042), BRACO-19 (NSC847499), peposertib (NSC802822), ceralasertib (NSC780249), elimusertib (NSC800525), camonsertib (NSC841442), AZD-1390 (NSC803789), olaparib (NSC753686), talazoparib (NSC767125), ART-558 (NSC835418), sotorasib (NSC818433), MRTX-1133 (NSC836407), SN-38 (NSC673596), topotecan (NSC609699), etoposide (NSC141540), doxorubicin (NSC123127), gemcitabine (NSC613327), 5-fluorouracil (NSC19893), paclitaxel (NSC125973), vemurafenib (NSC761431), panobinostat (NSC761190), R-306465 (JNJ-16241199; NSC773264), adavosertib (NSC754352), TP-3654 (NSC805149), carboplatin (NSC241240), KSQ-4279 (NSC840948), and staurosporine (NSC755774) were obtained from the National Cancer Institute (NCI) Developmental Therapeutics Program Chemical Repository (34). The FDA-approved anticancer drug set is available from the NCI Developmental Therapeutics Program. […] The stock solutions were prepared in dimethyl sulfoxide (DMSO, Sigma-Aldrich, St. Louis, MO, cat. D2650) at 800-fold the tested concentration and stored at -70 degrees C prior to their use. All drugs and investigational agents were tested over a range starting from a high concentration at or near the clinical Cmax and decreasing in half-log increments. If the clinical Cmax for an agent had not been determined, the highest concentration tested was 10 microM.
2.3 Cell Culture. All cells were maintained in an incubator at 37 degrees C and 5% CO2 with 95% humidity. The PDC lines were cultured according to standard operating procedures established by the NCI PDMR. All PDCs were thawed and cultured in Matrigel-coated flasks prepared with a working solution of 1X Ham's F-12 nutrient mix, without supplementation (Invitrogen, cat. 11765054), 100 U/mL penicillin-streptomycin (Invitrogen, cat. 15140122), and 2.5% Matrigel (Corning Inc., cat. 354248) for the first three passages. The 857933-349-R-J2-PDC line was cultured in 6C/Colon 1B media, which includes advanced DMEM/F-12 (Thermo Fisher Scientific, cat. 12634028), 10 mM HEPES (Thermo Fisher Scientific, cat. 15630080), 1X GlutaMAX supplement (Thermo Fisher Scientific, cat. 35050061), 0.1 mg/mL primocin (InvivoGen, cat. ant-pm-2), 10% defined fetal bovine serum, heat inactivated (HyClone Laboratories Inc., cat. SH30070.03HI), 50% L-WRN conditioned media (ATCC, cat. CRL-3276), 1.25 mM N-Acetyl-L-cysteine (Sigma-Aldrich, cat. A9165), 10 mM nicotinamide (Sigma-Aldrich, cat. N0636), 1X B-27 supplement (Thermo Fisher Scientific, cat. 17504044), 1X N-2 supplement (Thermo Fisher Scientific, cat. 17502048), 10 microM Y-27632 dihydrochloride (Tocris Bioscience, cat. 1254), and 50 ng/mL human EGF recombinant protein (Thermo Fisher Scientific, cat. PHG0311). The 485176-168-R4-J1-PDC line was cultured in Panc media, which includes all 6C/Colon 1B media components plus 100 ng/mL human FGF-10 (Thermo Fisher Scientific, cat. 100-26), 500 nM SB-431542 (Selleckchem, cat. S1067), and gastrin (Tocris, cat. 3006).
[…]

[1] = second compound 0.0316 µM, first compound 0.0316 µM
[2] = second compound 0.0316 µM, first compound 0.1 µM
[3] = second compound 0.0316 µM, first compound 0.316 µM
[4] = second compound 0.0316 µM, first compound 1 µM
[5] = second compound 0.0316 µM, first compound 3.16 µM
[6] = second compound 0.0316 µM, first compound 10 µM
[7] = second compound 0.1 µM, first compound 0.0316 µM
[8] = second compound 0.1 µM, first compound 0.1 µM
[9] = second compound 0.1 µM, first compound 0.316 µM
[10] = second compound 0.1 µM, first compound 1 µM
[11] = second compound 0.1 µM, first compound 3.16 µM
[12] = second compound 0.1 µM, first compound 10 µM
[13] = second compound 0.316 µM, first compound 0.0316 µM
[14] = second compound 0.316 µM, first compound 0.1 µM
[15] = second compound 0.316 µM, first compound 0.316 µM
[16] = second compound 0.316 µM, first compound 1 µM
[17] = second compound 0.316 µM, first compound 3.16 µM
[18] = second compound 0.316 µM, first compound 10 µM
[19] = second compound 1 µM, first compound 0.0316 µM
[20] = second compound 1 µM, first compound 0.1 µM
[21] = second compound 1 µM, first compound 0.316 µM
[22] = second compound 1 µM, first compound 1 µM
[23] = second compound 1 µM, first compound 3.16 µM
[24] = second compound 1 µM, first compound 10 µM
[25] = second compound 3.16 µM, first compound 0.0316 µM
[26] = second compound 3.16 µM, first compound 0.1 µM
[27] = second compound 3.16 µM, first compound 0.316 µM
[28] = second compound 3.16 µM, first compound 1 µM
[29] = second compound 3.16 µM, first compound 3.16 µM
[30] = second compound 3.16 µM, first compound 10 µM
[31] = second compound 10 µM, first compound 0.0316 µM
[32] = second compound 10 µM, first compound 0.1 µM
[33] = second compound 10 µM, first compound 0.316 µM
[34] = second compound 10 µM, first compound 1 µM
[35] = second compound 10 µM, first compound 3.16 µM
[36] = second compound 10 µM, first compound 10 µM
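Also: spheroids exposed to agents for 7 days before readout.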
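For viability, T/C in this document: percent viability relative to DMSO vehicle control taken as 100%.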

SMILES: Cc1cccc(N(C)C(=O)C2C(O)CCN2c2nc(C)cc(C(F)(F)F)c2C#N)c1 (centres undefined) + Cc1cnc(CNC(=O)c2c(=O)c3ccc(N4CCCN(C)CC4)nc3n3c2sc2ccccc23)cn1
- IC50 (second compound 0.0316 µM): > 10000 nM
- IC50 (second compound 0.1 µM): < 31.6 nM
- IC50 (second compound 0.316 µM): < 31.6 nM
- IC50 (second compound 1 µM): < 31.6 nM
- IC50 (second compound 3.16 µM): < 31.6 nM
- IC50 (second compound 10 µM): < 31.6 nM
- viability, T/C [1]: 85.6%
- viability, T/C [2]: 82.6%
- viability, T/C [3]: 81.8%
- viability, T/C [4]: 53.1%
- viability, T/C [5]: 91.4%
- viability, T/C [6]: 75%
- viability, T/C [7]: 38.5%
- viability, T/C [8]: 36.7%
- viability, T/C [9]: 29.3%
- viability, T/C [10]: 36.1%
- viability, T/C [11]: 39.3%
- viability, T/C [12]: 33.9%
- viability, T/C [13]: 27.7%
- viability, T/C [14]: 30.4%
- viability, T/C [15]: 26.6%
- viability, T/C [16]: 25.9%
- viability, T/C [17]: 28.6%
- viability, T/C [18]: 23%
- viability, T/C [19]: 19.2%
- viability, T/C [20]: 22.1%
- viability, T/C [21]: 22.1%
- viability, T/C [22]: 20.2%
- viability, T/C [23]: 22.9%
- viability, T/C [24]: 19.1%
- viability, T/C [25]: 20.1%
- viability, T/C [26]: 18.9%
- viability, T/C [27]: 20.4%
- viability, T/C [28]: 18.8%
- viability, T/C [29]: 18%
- viability, T/C [30]: 17.2%
- viability, T/C [31]: 0.19%
- viability, T/C [32]: 0.22%
- viability, T/C [33]: 0.21%
- viability, T/C [34]: 0.21%
- viability, T/C [35]: 0.24%
- viability, T/C [36]: 0.21%

SMILES: O=c1[nH]cc(F)c(=O)[nH]1 + Cc1cnc(CNC(=O)c2c(=O)c3ccc(N4CCCN(C)CC4)nc3n3c2sc2ccccc23)cn1
- IC50 (second compound 0.0316 µM): 799 nM
- IC50 (second compound 0.1 µM): < 31.6 nM
- IC50 (second compound 0.316 µM): < 31.6 nM
- IC50 (second compound 1 µM): < 31.6 nM
- IC50 (second compound 3.16 µM): < 31.6 nM
- IC50 (second compound 10 µM): < 31.6 nM
- viability, T/C [1]: 91.4%
- viability, T/C [2]: 75.3%
- viability, T/C [3]: 77.6%
- viability, T/C [4]: 43%
- viability, T/C [5]: 37.6%
- viability, T/C [6]: 33%
- viability, T/C [7]: 29.9%
- viability, T/C [8]: 41.6%
- viability, T/C [9]: 34.2%
- viability, T/C [10]: 35.5%
- viability, T/C [11]: 29.1%
- viability, T/C [12]: 25.7%
- viability, T/C [13]: 25.3%
- viability, T/C [14]: 27.6%
- viability, T/C [15]: 32.9%
- viability, T/C [16]: 26.8%
- viability, T/C [17]: 26.7%
- viability, T/C [18]: 23.3%
- viability, T/C [19]: 22.8%
- viability, T/C [20]: 22.4%
- viability, T/C [21]: 23.5%
- viability, T/C [22]: 24.8%
- viability, T/C [23]: 22.9%
- viability, T/C [24]: 21.4%
- viability, T/C [25]: 21.8%
- viability, T/C [26]: 21.2%
- viability, T/C [27]: 19.6%
- viability, T/C [28]: 19.5%
- viability, T/C [29]: 20.1%
- viability, T/C [30]: 18%
- viability, T/C [31]: 0.08%
- viability, T/C [32]: 0.13%
- viability, T/C [33]: 0.17%
- viability, T/C [34]: 0.14%
- viability, T/C [35]: 0.19%
- viability, T/C [36]: 0.16%
